# Experimental data published in patent publication US20090062304A1, “Benzimidazole derivatives and their use for modulating the gaba-alpha receptor complex” (priority 2005, published 2009).
# Columns and labels:
# [1] = target: benzodiazepine modulatory unit of the GABAA receptor complex; assay: In vitro inhibition of 3H-flunitrazepam (3H-FNM) binding; settings: inhibition of specific 3H-FNM (1 nM) binding, rat cerebral cortex membranes, 40 min at 2° C.
# Description: In Vitro Inhibition of ^3H-flunitrazepam (^3H-FNM) Binding
# […] the benzodiazepine modulatory unit can selectively be labelled with ^3H-flunitrazepam.
# Preparations are performed at 0-4° C. unless otherwise indicated. Cerebral cortex from male Wistar rats (150-200 g) is homogenised for 5-10 sec in 20 ml Tris-HCl (30 mM, pH 7.4) using an Ultra-Turrax homogeniser. The suspension is centrifuged at 27,000×g for 15 min and the pellet is washed three times with buffer (centrifuged at 27,000×g for 10 min). The washed pellet is homogenized in 20 ml of buffer and incubated on a water bath (37° C.) for 30 min to remove endogenous GABA and then centrifuged for 10 min at 27,000×g. The pellet is then homogenized in buffer and centrifuged for 10 min at 27,000×g. The final pellet is resuspended in 30 ml buffer and the preparation is frozen and stored at −20° C.
# The membrane preparation is thawed and centrifuged at 2° C. for 10 min at 27,000×g. The pellet is washed twice with 20 ml 50 mM Tris-citrate, pH 7.1 using an Ultra-Turrax homogeniser and centrifuged for 10 min at 27,000×g. The final pellet is resuspended in 50 mM Tris-citrate, pH 7.1 (500 ml buffer per g of original tissue), and then used for binding assays. Aliquots of 0.5 ml tissue are added to 25 μl of test solution and 25 μl of ^3H-FNM (1 nM, final concentration), mixed and incubated for 40 min at 2° C. Non-specific binding is determined using Clonazepam (1 μM, final concentration). After incubation the samples are added 5 ml of ice-cold buffer and poured directly onto Whatman GF/C glass fibre filters under suction and immediately washed with 5 ml ice-cold buffer. The amount of radioactivity on the filters is determined by conventional liquid scintillation counting. Specific binding is total binding minus non-specific binding.
# 25-75% inhibition of specific binding must be obtained, before calculation of an IC50.
# The test value will be given as IC50 (the concentration (μM) of the test substance which inhibits the specific binding of ^3H-FNM by 50%).
# Co is specific binding in control assays, and […]
SMILES,melting point,IC50 [1]
COc1ccc2c(c1)ncn2-c1cccc(N2CCN(C(C)=O)CC2)c1,157 °C,
"CC(=O)N1CCN(c2cccc(-n3cnc4cc(C(C)C)ccc43)c2)CC1 [Compound 38, 1-{4-[3-(5-Isopropyl-benzoimidazol-1-yl)-phenyl]-piperazin-1-yl}-ethanone]",,5 nM
"CC(=O)N1CCN(c2cccc(-n3cnc4cc(C(C)O)ccc43)c2)CC1 (stereo not shown) [Compound 33, 1-(4-{3-[5-(1-Hydroxy-ethyl)-benzoimidazol-1-yl]-phenyl}-piperazin-1-yl)-ethanone]",126 °C,9.6 nM
"CC(=O)N1CCN(c2cccc(-n3cnc4cc(C)ccc43)c2)CC1 [Compound 23, 1-{4-[3-(5-Methyl-benzoimidazol-1-yl)-phenyl]-piperazin-1-yl}-ethanone]",145 to 146 °C,2.6 nM
CC(=O)N1CCN(c2cccc(-n3cnc4cc(C(F)(F)F)ccc43)c2)CC1,143 to 146 °C,
